Assay results: paper PMC7904233 (Journal of medicinal chemistry, 2020)
Read-outs that look alike come from different tables or passages of the source.

Key:
[1] = system: ERα; format: cell-based, human
[2] = system: pRESTV; format: cell-based, ebolavirus Reston
[3] = system: pTFV; format: cell-based, ebolavirus Tai Forest
[4] = system: pMLAV; format: cell-based, Měnglà virus
[5] = system: pAIV-H5N1; format: cell-based, H5N1 avian influenza virus
[6] = system: pVSV; format: cell-based, vesicular stomatitis virus
[7] = system: infectious EBOV Zaire (Kikwit variant); format: cell-based, Zaire ebolavirus
[8] = system: pEBOV Zaire (Mayinga variant); assay: microbe, parasite or virus in culture; format: cell-based, Zaire ebolavirus; conditions: for IC50: read-out: IC50 (μM) pEBOV
[9] = biological target: ER; conditions: cited from earlier work; for Kd: read-out: Kd for ER
[10] = system: pMARV (Musoke variant); assay: microbe, parasite or virus in culture; format: cell-based, Marburg virus; conditions: read-out: IC50 (μM) pMARV
[11] = system: infectious MARV (Angola variant); format: cell-based, Marburg virus
[12] = Human immunodeficiency virus 1, A549, 48 h

CC/C(=C(/c1ccc(NC(=O)C2CCN(C)C2)cc1)c1ccc(OCCN2CCCC2)cc1)c1ccccc1 (stereo not drawn) [Compound 32, (E)-1-methyl-N-(4-(2-phenyl-1-(4-(2-(pyrrolidin-1-yl)ethoxy)phenyl)but-1-en-1-yl)phenyl)pyrrolidine-3-carboxamide]
antagonist activity at ER (in words) [1]: no antagonist activity | inhibition of viral entry (in words) [2]: improved potency | inhibition of viral entry (in words) [3]: improved potency | inhibition of viral entry (in words) [4]: improved potency | inhibition of pAIV-H5N1 (in words) [5]: Neither compounds showed appreciable inhibition | inhibition of pVSV (in words) [6]: Neither compounds showed appreciable inhibition

CC/C(=C(/c1ccc(N)cc1)c1ccc(OCCN2CCCC2)cc1)c1ccccc1 [Compound 27, (E)-4-(2-phenyl-1-(4-(2-(pyrrolidin-1-yl)ethoxy)phenyl)but-1-en-1-yl)aniline]
fold weaker than 9 [7]: 10 fold

Acolbifene [Compound 10]
fold weaker than 1 [8]: more than 20 fold | IC50 [8]: 1.5 ± 0.3 µM

CN(C)CCOc1ccc(/C(=C(/CCCl)c2ccccc2)c2ccccc2)cc1 [Compound 1, Toremifene]
IC50 [8, 12]: < 0.1 µM

CC/C(=C(/c1ccc(NCCN2CCCC2)cc1)c1ccc(OCCN2CCCC2)cc1)c1ccccc1 [Compound 28, (E)-4-(2-phenyl-1-(4-(2-(pyrrolidin-1-yl)ethoxy)phenyl)but-1-en-1-yl)-N-(2-(pyrrolidin-1-yl)ethyl)aniline]
IC50 [10, 12]: > 12.5 µM

Cc1c(-c2ccc(O)cc2)nn(-c2ccc(O)cc2)c1-c1ccc(OCCN2CCCCC2)cc1 [Compound 23, MPP]
Kd [9]: 1.8 nM

(E)-1-methyl-N-(4-(2-phenyl-1-(4-(2-(pyrrolidin-1-yl)ethoxy)phenyl)but-1-en-1-yl)phenyl)piperidine-4-carboxamide [Compound 30]
IC50 [8]: 0.01 ± 0.005 µM | IC50 [10]: 0.54 ± 0.05 µM | fold more potent than 1 [7]: 10 fold | IC50 ([7]; read-out: IC50 (μM) EBOV): 0.09 ± 0.03 µM | fold more potent than 1 [11]: 6 fold | IC50 ([11]; read-out: IC50 (μM) MARV): 0.64 ± 0.12 µM | antagonist activity at ER (in words) [1]: no antagonist activity | inhibition of viral entry (in words) [2]: improved potency | inhibition of viral entry (in words) [3]: improved potency | inhibition of viral entry (in words) [4]: improved potency | inhibition of pAIV-H5N1 (in words) [5]: Neither compounds showed appreciable inhibition | inhibition of pVSV (in words) [6]: Neither compounds showed appreciable inhibition

CC/C(=C(\c1ccccc1)c1ccc(OCCN(C)C)cc1)c1ccccc1 [Compound 5, Tamoxifen]
ER affinity [9]: 13.8 nM

COc1ccc2c(c1)CCC(c1ccccc1)=C2c1ccc(OCCN2CCCC2)cc1 [Compound 6, Nafoxidine]
IC50 [8, 12]: 0.1 ± 0.009 µM
